Results on 19 molecules are retold here after PMC3954497 (Journal of Medicinal Chemistry, 2014).

Data set [1] addresses NET (Rattus norvegicus, UniProt Q63380). The data set can be described thus: biochemical. The data set is classed as binding. Conditions: 3 h, read-out: Ki [SE interval] NET.
The target of data set [2] is DAT (Rattus norvegicus, UniProt P23977). Type of data set: binding. Conditions: for improvement in DAT affinity vs unsubstituted analogue: 4i vs 4g, 6c vs 6a.
The target of data set [3] is SERT (Rattus norvegicus, UniProt P31652). Type of data set: binding. The conditions noted are these: for increase in SERT affinity vs unsubstituted analogue: 4i vs 4g, 6c vs 6a; for displacement at the SERT: rat brain membranes.
Sequence of SERT (P31652 whole entry): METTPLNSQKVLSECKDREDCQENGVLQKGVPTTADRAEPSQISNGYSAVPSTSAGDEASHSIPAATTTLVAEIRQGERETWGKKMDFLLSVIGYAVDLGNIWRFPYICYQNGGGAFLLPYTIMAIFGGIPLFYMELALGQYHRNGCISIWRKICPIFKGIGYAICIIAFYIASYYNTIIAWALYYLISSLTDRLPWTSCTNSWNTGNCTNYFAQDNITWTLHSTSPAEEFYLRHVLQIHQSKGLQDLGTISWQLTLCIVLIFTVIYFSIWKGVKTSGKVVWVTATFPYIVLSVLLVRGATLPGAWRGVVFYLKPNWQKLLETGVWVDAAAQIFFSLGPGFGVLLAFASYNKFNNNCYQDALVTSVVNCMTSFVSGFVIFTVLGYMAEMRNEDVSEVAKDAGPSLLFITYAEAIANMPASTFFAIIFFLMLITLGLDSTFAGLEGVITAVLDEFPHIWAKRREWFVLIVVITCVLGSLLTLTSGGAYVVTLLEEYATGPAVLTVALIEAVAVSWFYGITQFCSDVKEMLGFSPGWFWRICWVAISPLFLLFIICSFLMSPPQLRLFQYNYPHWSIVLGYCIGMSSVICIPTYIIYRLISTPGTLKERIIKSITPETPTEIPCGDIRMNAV
Data set [4] concerns NCCc1c[nH]c2ccc(O)cc12. Briefly: cells, lysate or membranes. Conditions: pH 7.4; 37.0 °C.

Sequence of DAT (P23977 whole entry): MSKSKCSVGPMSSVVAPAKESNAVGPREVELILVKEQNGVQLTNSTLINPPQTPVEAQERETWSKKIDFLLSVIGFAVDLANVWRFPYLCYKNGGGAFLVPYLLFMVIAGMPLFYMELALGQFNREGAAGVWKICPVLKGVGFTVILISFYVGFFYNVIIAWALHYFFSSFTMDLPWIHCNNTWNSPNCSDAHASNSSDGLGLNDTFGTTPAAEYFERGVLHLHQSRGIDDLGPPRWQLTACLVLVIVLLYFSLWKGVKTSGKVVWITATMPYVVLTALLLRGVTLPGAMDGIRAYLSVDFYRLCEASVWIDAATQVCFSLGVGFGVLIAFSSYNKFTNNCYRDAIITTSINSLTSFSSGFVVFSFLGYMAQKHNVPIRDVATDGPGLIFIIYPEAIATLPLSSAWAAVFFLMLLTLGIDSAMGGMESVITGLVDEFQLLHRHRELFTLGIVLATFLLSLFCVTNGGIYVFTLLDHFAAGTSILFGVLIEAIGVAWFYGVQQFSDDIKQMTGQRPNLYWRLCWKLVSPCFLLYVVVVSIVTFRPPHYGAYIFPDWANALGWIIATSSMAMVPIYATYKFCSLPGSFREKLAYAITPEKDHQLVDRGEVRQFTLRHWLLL
Sequence of NET (Q63380 1-617): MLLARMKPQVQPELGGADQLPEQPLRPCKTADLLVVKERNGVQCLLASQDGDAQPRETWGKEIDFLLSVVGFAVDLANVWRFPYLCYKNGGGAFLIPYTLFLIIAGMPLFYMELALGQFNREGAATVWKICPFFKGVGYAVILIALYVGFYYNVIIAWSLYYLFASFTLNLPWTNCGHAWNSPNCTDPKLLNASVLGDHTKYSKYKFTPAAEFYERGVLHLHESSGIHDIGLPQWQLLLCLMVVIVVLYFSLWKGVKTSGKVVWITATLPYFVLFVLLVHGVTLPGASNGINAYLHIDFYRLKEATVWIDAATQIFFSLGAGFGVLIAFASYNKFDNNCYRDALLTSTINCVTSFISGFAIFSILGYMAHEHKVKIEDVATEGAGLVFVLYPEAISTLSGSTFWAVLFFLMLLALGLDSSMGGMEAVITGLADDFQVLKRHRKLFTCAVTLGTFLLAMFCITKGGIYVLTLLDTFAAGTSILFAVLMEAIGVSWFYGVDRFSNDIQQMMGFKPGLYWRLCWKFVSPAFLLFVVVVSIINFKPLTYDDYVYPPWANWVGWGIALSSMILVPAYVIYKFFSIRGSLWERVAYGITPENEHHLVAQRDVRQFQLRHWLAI

In the case of `NC(=O)CSC(c1ccccc1)c1ccccc1` [4a, 2-(Benzhydrylthio)acetamide], the inhibition in data set [1] was less than 50%.
With `CNC(=O)CSC(c1ccc(Br)cc1)c1ccc(Br)cc1` [4i, 2-((Bis(4-bromophenyl)methyl)thio)-N-methylacetamide], in data set [2], the “improvement in DAT affinity vs unsubstituted analogue” value worked out at 6 fold. For the same molecule, the “increase in SERT affinity vs unsubstituted analogue” value in data set [3] is listed as greater than 50 fold.
For `C=CCNC(=O)CSC(c1ccccc1)c1ccccc1` [4j, N-Allyl-2-(benzhydrylthio)acetamide], the inhibition in data set [1] is less than 50%.
The same measure, in the same setting: as for `O=C(CSC(c1ccccc1)c1ccccc1)NCC1CC1` [4o, 2-(Benzhydrylthio)-N-(cyclopropylmethyl)acetamide], the figure is less than 50%.
In the case of `O=C(CSC(c1ccc(Br)cc1)c1ccc(Br)cc1)NCC1CC1` [4q, 2-((Bis(4-bromophenyl)methyl)thio)-N-(cyclopropylmethyl)acetamide], the inhibition in data set [1] is less than 50%.
Same read-out and setting: as for `CCCCNC(=O)CSC(c1ccccc1)c1ccccc1` [4r, 2-(Benzhydrylthio)-N-butylacetamide], the figure is less than 50%.
With `O=C(CSC(c1ccccc1)c1ccccc1)NCCCc1ccccc1` [4u, 2-(Benzhydrylthio)-N-(3-phenylpropyl)acetamide], the inhibition at 100 µM in data set [1] was less than 50%.
On to `O=C(CSC(c1ccc(F)cc1)c1ccc(F)cc1)NCCCc1ccccc1` [4v, 2-((Bis(4-fluorophenyl)methyl)thio)-N-(3-phenylpropyl)acetamide], for which, in data set [1], the inhibition at 100 µM was less than 50%.
As to `O=C(CSC(c1ccc(Cl)cc1)c1ccc(Cl)cc1)NCCCc1ccccc1` [4w, 2-((Bis(4-chlorophenyl)methyl)thio)-N-(3-phenylpropyl)acetamide], the inhibition at 100 µM in data set [1] is less than 50%. Further, the “displacement at the SERT” value in data set [3] was “no displacement”.
Turning to `O=C(CSC(c1ccc(Br)cc1)c1ccc(Br)cc1)NCCCCc1ccccc1` [4z, 2-((Bis(4-bromophenyl)methyl)thio)-N-(4-phenylbutyl)acetamide], the inhibition at 100 µM in data set [1] was less than 50%. The “displacement at the SERT” value in data set [3] was “no displacement”.
Consider `Cc1ccc(C(c2ccc(C)cc2)[S+]([O-])CC(N)=O)cc1` (stereo not drawn) [5a, 2-((Di-p-tolylmethyl)sulfinyl)acetamide], for which the inhibition in data set [1] is less than 50%.
The same measure, in the same setting: as for `NC(=O)C[S+]([O-])C(c1cccc(F)c1)c1cccc(F)c1` (stereo not drawn) [5c, 2-((Bis(3-fluorophenyl)methyl)sulfinyl)acetamide], the figure is less than 50%.
Still for that read-out and setting: as for `NC(=O)C[S+]([O-])C(c1cccc(Cl)c1)c1cccc(Cl)c1` (stereo not drawn) [5d, 2-((Bis(3-chlorophenyl)methyl)sulfinyl)acetamide], the figure is less than 50%.
Consider `NC(=O)C[S+]([O-])C(c1ccccc1)c1cccc(Br)c1` (stereo not drawn) [5e, 2-(((3-Bromophenyl)phenylmethyl)sulfinyl)acetamide], for which the inhibition in data set [1] is less than 50%. Besides, the “displacement at the SERT” value in data set [3] is on record as “no displacement”.
Regarding `CNC(=O)C[S+]([O-])C(c1ccccc1)c1ccccc1` (stereo not drawn) [5f, 2-(Benzhydrylsulfinyl)-N-methylacetamide], the inhibition in data set [1] is less than 50%.
For the molecule `O=C(C[S+]([O-])C(c1ccc(Br)cc1)c1ccc(Br)cc1)NCCCc1ccccc1` (stereo not drawn) [5g, 2-((Bis(4-bromophenyl)methyl)sulfinyl)-N-(3-phenylpropyl)acetamide], the inhibition at 100 µM in data set [1] was less than 50%.
With `NCCSC(c1ccccc1)c1ccccc1` [6a, 2-(Benzhydrylthio)ethan-1-amine], the “improved DAT affinity compared to (±)-1” value in data set [2] is given as “about 20 fold”.
For `NCCSC(c1ccc(Br)cc1)c1ccc(Br)cc1` [6c, 2-((Bis(4-bromophenyl)methyl)thio)ethan-1-amine], the “improvement in DAT affinity vs unsubstituted analogue” value in data set [2] was 3 fold. For the same molecule, the “increase in SERT affinity vs unsubstituted analogue” value in data set [3] is listed as 9 fold.
For the molecule hSERT-WT (Homo sapiens), the Km in data set [4] is 520 [360–760] nM.
